Measured values: patent US20210053957A1, “HERBICIDAL COMPOUNDS” (SYNGENTA PARTICIPATIONS AG, priority 2018, published 2021)

Assays:
Experiment in all cases: Post-emergence efficacy, glasshouse spray test
Assay type in all cases: in vivo
[1] = test system: Digitaria sanguinalis (DIGSA); settings: Digitaria sanguinalis, post-emergence, 312 h; Application Rate 500 g/Ha; evaluated after 13 days; read-out: Control of weed species after post-emergence application, DIGSA (100=total damage to plant; 0=no damage to plant)
How it was run: (§1)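 Visual damage rating (0 = no damage, 100 = total damage) taken 13 days after a post-emergence spray. Plants had grown 14 days in pots under 24/16° C, 14 h light, 65% humidity before treatment.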

[2] = test system: Euphorbia heterophylla (EPHHL); settings: Euphorbia heterophylla, post-emergence, 312 h; Application Rate 500 g/Ha; evaluated after 13 days; read-out: Control of weed species after post-emergence application, EPHHL (100=total damage to plant; 0=no damage to plant)
How it was run: as §1

[3] = test system: Lolium perenne (LOLPE); settings: Lolium perenne, post-emergence, 312 h; Application Rate 500 g/Ha; evaluated after 13 days; read-out: Control of weed species after post-emergence application, LOLPE (100=total damage to plant; 0=no damage to plant)
How it was run: as §1

[4] = test system: Chenopodium album (CHEAL); settings: Chenopodium album, post-emergence, 312 h; Application Rate 500 g/Ha; evaluated after 13 days; read-out: Control of weed species after post-emergence application, CHEAL (100=total damage to plant; 0=no damage to plant)
How it was run: as §1

[5] = test system: Ipomoea hederacea (IPOHE); settings: Ipomoea hederacea, post-emergence, 312 h; Application Rate 500 g/Ha; evaluated after 13 days; read-out: Control of weed species after post-emergence application, IPOHE (100=total damage to plant; 0=no damage to plant)
How it was run: as §1

[6] = test system: Echinochloa crus-galli (ECHCG); settings: Echinochloa crus-galli, post-emergence, 312 h; Application Rate 500 g/Ha; evaluated after 13 days; read-out: Control of weed species after post-emergence application, ECHCG (100=total damage to plant; 0=no damage to plant)
How it was run: as §1

[7] = test system: Setaia fabei (SETFA); settings: Setaria faberi, post-emergence, 312 h; Application Rate 500 g/Ha; evaluated after 13 days; read-out: Control of weed species after post-emergence application, SETFA (100=total damage to plant; 0=no damage to plant)
How it was run: as §1

[8] = test system: Eleusine indica (ELEIN); settings: Eleusine indica, post-emergence, 312 h; Application Rate 500 g/Ha; evaluated after 13 days; read-out: Control of weed species after post-emergence application, ELEIN (100=total damage to plant; 0=no damage to plant)
How it was run: as §1

[9] = test system: Amaranthus palmeri (AMAPA); settings: Amaranthus palmeri, post-emergence, 312 h; Application Rate 500 g/Ha; evaluated after 13 days; read-out: Control of weed species after post-emergence application, AMAPA (100=total damage to plant; 0=no damage to plant)
How it was run: as §1

SMILES: O=S(=O)([O-])OCC[n+]1ccc(-c2nccs2)cn1 [Compound A113]
- pest or weed control at 500 g/ha [1]: 70%
- pest or weed control at 500 g/ha [2]: 70%
- pest or weed control at 500 g/ha [3]: 60%
- pest or weed control at 500 g/ha [4]: 60%
- pest or weed control at 500 g/ha [5]: 50%
- pest or weed control at 500 g/ha [6]: 70%
- pest or weed control at 500 g/ha [7]: 70%
- pest or weed control at 500 g/ha [8]: 70%
- pest or weed control at 500 g/ha [9]: 100%

SMILES: O=C(O)CCC[n+]1ccc(-c2nccs2)cn1 [Compound A115]
- pest or weed control at 500 g/ha [1]: 90%
- pest or weed control at 500 g/ha [2]: 100%
- pest or weed control at 500 g/ha [3]: 60%
- pest or weed control at 500 g/ha [4]: 70%
- pest or weed control at 500 g/ha [5]: 20%
- pest or weed control at 500 g/ha [6]: 90%
- pest or weed control at 500 g/ha [7]: 100%
- pest or weed control at 500 g/ha [8]: 100%
- pest or weed control at 500 g/ha [9]: 100%

SMILES: O=S(=O)([O-])CCC[n+]1ccc(-c2nccs2)cn1 [Compound A116]
- pest or weed control at 500 g/ha [1]: 60%
- pest or weed control at 500 g/ha [2]: 70%
- pest or weed control at 500 g/ha [3]: 80%
- pest or weed control at 500 g/ha [4]: 40%
- pest or weed control at 500 g/ha [5]: 20%
- pest or weed control at 500 g/ha [6]: 60%
- pest or weed control at 500 g/ha [7]: 60%
- pest or weed control at 500 g/ha [8]: 80%
- pest or weed control at 500 g/ha [9]: 100%

SMILES: Cn1cnc(-c2cc[n+](CCCS(=O)(=O)[O-])nc2)n1 [Compound A117]
- pest or weed control at 500 g/ha [1]: 80%
- pest or weed control at 500 g/ha [2]: 70%
- pest or weed control at 500 g/ha [3]: 40%
- pest or weed control at 500 g/ha [4]: 20%
- pest or weed control at 500 g/ha [5]: 30%
- pest or weed control at 500 g/ha [6]: 70%
- pest or weed control at 500 g/ha [7]: 90%
- pest or weed control at 500 g/ha [8]: 20%
- pest or weed control at 500 g/ha [9]: 40%

SMILES: Cn1cnc(-c2cc[n+](CCOS(=O)(=O)[O-])nc2)n1 [Compound A118]
- pest or weed control at 500 g/ha [1]: 90%
- pest or weed control at 500 g/ha [2]: 70%
- pest or weed control at 500 g/ha [3]: 40%
- pest or weed control at 500 g/ha [4]: 30%
- pest or weed control at 500 g/ha [5]: 30%
- pest or weed control at 500 g/ha [6]: 90%
- pest or weed control at 500 g/ha [7]: 90%
- pest or weed control at 500 g/ha [8]: 70%
- pest or weed control at 500 g/ha [9]: 50%

SMILES: Cn1cnc(-c2cc[n+](CCCC(=O)O)nc2)n1 [Compound A119]
- pest or weed control at 500 g/ha [1]: 90%
- pest or weed control at 500 g/ha [2]: 80%
- pest or weed control at 500 g/ha [3]: 30%
- pest or weed control at 500 g/ha [4]: 50%
- pest or weed control at 500 g/ha [5]: 30%
- pest or weed control at 500 g/ha [6]: 80%
- pest or weed control at 500 g/ha [7]: 100%
- pest or weed control at 500 g/ha [8]: 90%
- pest or weed control at 500 g/ha [9]: 100%

SMILES: COC(=O)C[n+]1ccc(-c2nccs2)cn1 [Compound A120]
- pest or weed control at 500 g/ha [1]: 80%
- pest or weed control at 500 g/ha [2]: 70%
- pest or weed control at 500 g/ha [3]: 0%
- pest or weed control at 500 g/ha [4]: 50%
- pest or weed control at 500 g/ha [5]: 10%
- pest or weed control at 500 g/ha [6]: 70%
- pest or weed control at 500 g/ha [7]: 60%
- pest or weed control at 500 g/ha [8]: 90%
- pest or weed control at 500 g/ha [9]: 100%

SMILES: COC(=O)CCC[n+]1ccc(-c2ncn(C)n2)cn1 [Compound A121]
- pest or weed control at 500 g/ha [1]: 60%
- pest or weed control at 500 g/ha [2]: 40%
- pest or weed control at 500 g/ha [3]: 10%
- pest or weed control at 500 g/ha [4]: 10%
- pest or weed control at 500 g/ha [5]: 10%
- pest or weed control at 500 g/ha [6]: 100%
- pest or weed control at 500 g/ha [7]: 40%
- pest or weed control at 500 g/ha [8]: 50%
- pest or weed control at 500 g/ha [9]: 30%

SMILES: O=C(O)CC[n+]1ccc(-c2cncs2)cn1 [Compound A122]
- pest or weed control at 500 g/ha [1]: 90%
- pest or weed control at 500 g/ha [2]: 70%
- pest or weed control at 500 g/ha [3]: 20%
- pest or weed control at 500 g/ha [4]: 0%
- pest or weed control at 500 g/ha [5]: 30%
- pest or weed control at 500 g/ha [6]: 30%
- pest or weed control at 500 g/ha [7]: 50%
- pest or weed control at 500 g/ha [8]: 70%
- pest or weed control at 500 g/ha [9]: 90%

SMILES: O=C(O)C[n+]1ccc(-c2nccs2)cn1 [Compound A123]
- pest or weed control at 500 g/ha [1]: 20%
- pest or weed control at 500 g/ha [2]: 30%
- pest or weed control at 500 g/ha [3]: 10%
- pest or weed control at 500 g/ha [4]: 0%
- pest or weed control at 500 g/ha [5]: 10%
- pest or weed control at 500 g/ha [6]: 10%
- pest or weed control at 500 g/ha [7]: 10%
- pest or weed control at 500 g/ha [8]: 20%
- pest or weed control at 500 g/ha [9]: 0%
